Where two headings read alike, the source gives them in different places. Strand notation (5' to 3'): a small letter for the sugar, then the base; units joined by * are phosphorothioate-linked, units joined directly phosphodiester-linked; [ ] holds rarer units or linkages, { } end groups; capitals alone tell only the bases. [MMI] = methylene(methylimino) internucleoside backbone linkage; [PRP-N] = 2'-O-propyl ribonucleoside (N: the base); [PRP] = 2'-O-propyl ribonucleoside; e = 2'-O-(2-methoxyethyl) (MOE); [5mC] = 5-methylcytosine; d = 2'-deoxy (DNA); m = 2'-O-methyl; f = 2'-fluoro Bounds are passed on as bounds.

We go through 19 substances from patent US20020052331A1, “Compositions and methods for antisense inhibition of protein translation” (priority 1990, published 2002).

In one data set the test system is E-selectin mRNA. The data set is described as follows: ELISA of E-selectin expression in HUVECs. In kind it is cell-based, human. The conditions noted are these: for inhibition of E-selectin expression: oligomer concentration of 50 nM.
The subject of the next data set is VCAM-1 mRNA. The data set is described as follows: ELISA of VCAM-1 expression in HUVECs. The conditions noted are these: for IC50: read-out: IC50 for inhibition of VCAM-1 expression. In kind it is cell-based, human. A general note: ELISA stands for enzyme-linked immunosorbent assay.
Data set [1] deals with ICAM-1 mRNA. As to the kind of experiment: ICAM-1 expression in U937 cells after electroporation of PNA oligomer (FACS). The conditions noted are these: electroporated into U937 cells. In kind it is cell-based, human. From the text:
A PNA oligomer, ISIS 10535 (SEQ ID NO: 2), was synthesized, which is a shortened version of SEQ ID NO: 1 made as a PNA, with three arginines added at the 5′ end and one lysine added at the 3′ end. This oligomer was electroporated into U937 cells and a potent dose-response was obtained.
Cells were removed from plate surfaces by brief trypsinization with 0.25% trypsin in PBS. Trypsin activity was quenched with a solution of 2% bovine serum albumin and 0.2% sodium azide in PBS (+Mg/Ca). Cells were pelleted by centrifugation at 1000 rpm (Beckman GPR centrifuge), resuspended in PBS and stained with 3 μl/10^5 cells of ICAM-1 specific antibody, CD54-PE (Becton Dickinson, Mansfield Mass.) and 0.1 μg of control conjugated antibody, IgG2b-PE (Pharmingen, San Diego Calif.). Antibodies were incubated with the cells for 30 minutes at 4° C. in the dark, under gentle agitation. Cells were washed and then resuspended in 0.3 ml of FACSFLOW buffer (Becton Dickinson) with 0.5% formaldehyde. Expression of cell surface ICAM-1 was then determined by flow cytometry using a Becton Dickinson FACScan (San Jose, Calif.). ICAM-1 expression was calculated as a percentage of control expression.
Cells were washed in PBS and resuspended in PBS at 1×10^6 cells/ml. […] ICAM-1 expression was quantitated by FACS as in Example 4.

Data set [2] deals with ICAM-1 mRNA. As to the kind of experiment: Cell surface ICAM-1 expression in U937 cells after electroporation of MMI oligomers. In kind it is cell-based, human. The conditions noted are these: six concentrations 4 to 40 μM, N.A. = IC50 not obtained in the given dose range, read-out: Antisense activity (IC50) Electroporate. The protocol: ISIS 14293-14296 are corresponding oligomers with alternating MMI/P═S backbones.
U937 cells were washed once in cold Opti-MEM (Gibco-BRL, Grand Island, N.Y.) and resuspended at 4×10^6 cells/ml. Oligomer was added to 0.1 ml of cells and incubated for 10 minutes on ice. Cells were transferred to a 1 mm gap electrode (BTX, San Diego, Calif.) and electroporated at 0.75 kV/cm. Cells were incubated at room temperature for 10 minutes and transferred to pre-warmed medium. Cells were allowed to rest for 1.5 hours before ICAM-1 expression was induced with 5 ng/ml TNF-αovernight. Cells were stained with an anti-ICAM-1-PE antibody (Pharmingen, San Diego CA) the next day.

Data set [3] relates to ICAM-1 mRNA. As to the kind of experiment: Reduction of ICAM-1 protein levels in HUVEC cells (LIPOFECTIN delivery, FACS). Type of data set: cell-based, human.
Data set [4] deals with ICAM-1 mRNA. As to the kind of experiment: ELISA of human ICAM-1 protein expression in HUVECs (mAb84H10). Type of data set: cell-based. The conditions noted are these: FIG. 4 experiment.
Setting [5] is: HUVECs, ELISA, FIG. 5 experiment, read-out: IC50 for reduction of E-selectin expression.
The mark [6] stands for this setting: HUVECs, ELISA, equivalent (second) experiment, read-out: IC50 for reduction of E-selectin expression.
Where [7] appears, read: read-out: IC50 for inhibition of ICAM-1 protein expression.

Regarding “ISIS 4764: SEQ ID NO: 3, P═S deoxy; E-selectin 5′ cap (dG*dA*dA*dG*dT*dC*dA*dG*dC*dC*dA*dA*dG*dA*dA*dC*dA*dG*dC*dT)”, the IC50 in the data set with E-selectin mRNA (setting [5]) was approximately 10 nM; in the data set on E-selectin mRNA (setting [6]), 10 nM; in the data set with E-selectin mRNA (HUVECs, FIG. 3 experiment, read-out: IC50 for inhibition of E-selectin expression), less than 10 nM.

Consider “ISIS 5884: CGATGCAGATACCGCGGAGT (SEQ ID NO: 15), P═S deoxy; VCAM-1 n.t. 1-20 (dC*dG*dA*dT*dG*dC*dA*dG*dA*dT*dA*dC*dC*dG*dC*dG*dG*dA*dG*dT)”, for which, in the data set with VCAM-1 mRNA (FIG. 6 experiment), the IC50 lay in the range of 10 to 12 nM.

As to “ISIS 9218: SEQ ID NO: 3, P═S all 2′-O-propyl except 3′ nt is deoxy; E-selectin 5′ cap (GAAGTCAGCCAAGAACAGCT; sugars from the 5' end [PRP]19 d1, all phosphorothioate, methylation of C not given here)”, the IC50 in the data set on E-selectin mRNA (setting [6]) is 25 nM.

As to “ISIS 9984: SEQ ID NO: 3 GAAGTCAGCCAAGAACAGCT, P═S all 2′ F except 3′ nt is deoxy; E-selectin 5′ cap (sugars from the 5' end f19 d1, all phosphorothioate, T or U not given here)”, the “IC50 for inhibition of E-selectin expression” value in the data set on E-selectin mRNA (HUVECs, FIG. 3 experiment) is on record as “well below this”. Further, the “relative activity in inhibiting E-selectin protein expression” value with E-selectin mRNA (among over 30 2′-fluoro phosphorothioate sequences complementary to various regions of the E-selectin message) is reported as “by far the most active”.

Consider “ISIS 10535: PNA oligomer (SEQ ID NO: 2), shortened SEQ ID NO: 1, three arginines at the 5′ end and one lysine at the 3′ end (antisense TCTGAGTAGCAGAGGAGC; all peptide nucleic acid (PNA); three arginines at 5' end, one lysine at 3' end)”, for which the “ICAM-1 level at higher doses” value in the data set with ICAM-1 mRNA [1] is recorded as “below baseline levels”. For the same substance, in the data set with ICAM-1 mRNA [1] (read-out: IC50 for ICAM-1 reduction), the IC50 is less than 5000 nM.

As to “ISIS 11158: SEQ ID NO: 1, 2′-methoxyethoxy, phosphodiester (P═O); targeted to ICAM-1 5′ cap (antisense TCTGAGTAGCAGAGGAGCTC; all 2'-MOE, all phosphodiester, methylation of C not given here)”, the IC50 in the data set on ICAM-1 mRNA [2] is 1000 nM; in the data set on ICAM-1 mRNA [3] (read-out: IC50 (concentration required for 50% inhibition of ICAM-1 levels), HUVEC cells) it was approximately 9 nM; with ICAM-1 mRNA [4] (setting [7]), approximately 5 nM. Also, in the data set on ICAM-1 mRNA [3] (HUVECs), the “ICAM-1 protein expression at the oligonucleotide concentrations of the Northern experiment” value is listed as “completely inhibited”.

Turning to “ISIS 11205: SEQ ID NO: 3, P═S all 2′ F except 3′ nt is deoxy, all C's 5meC; E-selectin 5′ cap (antisense GAAGTCAGCCAAGAACAGCT; sugars from the 5' end f19 d1, all C 5-methyl, all phosphorothioate, T or U not given here)”, the IC50 with E-selectin mRNA (setting [5]) and in the data set with E-selectin mRNA (setting [6]) was less than 3 nM in each case. Further, the “inhibition of E-selectin expression” value with E-selectin mRNA (HUVECs) is on record as approximately 100%.

As to “ISIS 11928: SEQ ID NO: 3, P═S all 2′-MOE except 3′ nt is deoxy, all C's 5meC; E-selectin 5′ cap (antisense eG*eA*eA*eG*eT*e[5mC]*eA*eG*e[5mC]*e[5mC]*eA*eA*eG*eA*eA*e[5mC]*eA*eG*e[5mC]*dT)”, the IC50 in the data set with E-selectin mRNA (setting [5]) and in the data set on E-selectin mRNA (setting [6]) was less than 3 nM throughout. Besides, the “inhibition of E-selectin expression” value in the data set on E-selectin mRNA (HUVECs) is listed as approximately 100%.

“ISIS 13181: SEQ ID NO: 15 sequence, P═S all 2′ F; VCAM-1 n.t. 1-20 (antisense CGATGCAGATACCGCGGAGT; sugars from the 5' end f19 d1, all phosphorothioate, T or U not given here)”: the IC50 in the data set with VCAM-1 mRNA (FIG. 6 experiment) is less than 10 nM. Further, in the data set with VCAM-1 mRNA (highest dose tested, 100 nM), the “inhibition of VCAM-1 expression” value came to 100%.

Turning to “ISIS 13182: SEQ ID NO: 15, P═S all 2′-MOE, all C's are 5meC; VCAM-1 n.t. 1-20 (antisense e[5mC]*eG*eA*eT*eG*e[5mC]*eA*eG*eA*eT*eA*e[5mC]*e[5mC]*eG*e[5mC]*eG*eG*eA*eG*dT)”, in the data set on VCAM-1 mRNA (FIG. 6 experiment), the IC50 was less than 10 nM.

Turning to “ISIS 13183: SEQ ID NO: 15, P═O all 2′-MOE, all C's are 5meC; VCAM-1 n.t. 1-20 (antisense e[5mC]eGeAeTeGe[5mC]eAeGeAeTeAe[5mC]e[5mC]eGe[5mC]eGeGeAeGdT)”, the IC50 in the data set with VCAM-1 mRNA (FIG. 6 experiment) is less than 10 nM.

For the substance “ISIS 13884: GGCTGAGGTTGCAACTCTGA (SEQ ID NO: 9), uniform P═O/2′MOE; ICAM-1 n.t. 16-35 (antisense eGeGe[5mC]eTeGeAeGeGeTeTeGe[5mC]eAeAe[5mC]eTe[5mC]eTeGdA)”, the IC50 in the data set on ICAM-1 mRNA [4] (setting [7]) is approximately 40 nM.

In the case of “ISIS 13886: GCAACTCTGAGTAGCAGAGG (SEQ ID NO: 10), uniform P═O/2′MOE; ICAM-1 n.t. 6-25 (antisense eGe[5mC]eAeAe[5mC]eTe[5mC]eTeGeAeGeTeAeGe[5mC]eAeGeAeGdG)”, the IC50 in the data set on ICAM-1 mRNA [4] (setting [7]) was more than 50 nM; in the data set with ICAM-1 mRNA [4] (tested only up to 50 nM, read-out: estimated IC50 by extrapolation of the dose-response curve) it was approximately 60 nM.

As for “ISIS 14040: SEQ ID NO: 15, P═S all 2′-O-propyl, all C's are 5meC; VCAM-1 n.t. 1-20 (antisense [PRP-5mC]*[PRP-G]*[PRP-A]*[PRP-T]*[PRP-G]*[PRP-5mC]*[PRP-A]*[PRP-G]*[PRP-A]*[PRP-T]*[PRP-A]*[PRP-5mC]*[PRP-5mC]*[PRP-G]*[PRP-5mC]*[PRP-G]*[PRP-G]*[PRP-A]*[PRP-G]*dT)”, the IC50 in the data set with VCAM-1 mRNA (subsequent experiment) was less than 10 nM.

As for “ISIS 14041: SEQ ID NO: 15, P═S all 2′-O-methyl, all C's are 5meC; VCAM-1 n.t. 1-20 (CGATGCAGATACCGCGGAGT; sugars from the 5' end m19 d1, all C 5-methyl, all phosphorothioate, T or U not given here)”, in the data set on VCAM-1 mRNA (subsequent experiment), the IC50 was less than 10 nM.

“ISIS 14043: SEQ ID NO: 3, P═S all 2′-O-methyl except 3′ nt is deoxy, all C's 5meC; E-selectin 5′ cap (GAAGTCAGCCAAGAACAGCT; sugars from the 5' end m19 d1, all C 5-methyl, all phosphorothioate, T or U not given here)”: the IC50 in the data set with E-selectin mRNA (setting [6]) is 10 nM.

For the substance “ISIS 14290: T*GA*GT*AG*CA*GA*GG*AG*CT*C (SEQ ID NO: 12), alternating P═O/MMI; ICAM-1 n.t. 1-18 (TGAGTAGCAGAGGAGCTC; linkages [MMI]o[MMI]o[MMI]o[MMI]o[MMI]o[MMI]o[MMI]o[MMI]o[MMI] (s phosphorothioate, o phosphodiester), sugars by position and methylation of C not given here; 3'-terminal nucleotide 2'-deoxy, non-terminal cytosines 5-methylated)”, the IC50 with ICAM-1 mRNA [2] amounted to 7000 nM.

In the case of “ISIS 14292: T*AG*CA*GA*GG*AG*CT*C (SEQ ID NO: 14), alternating P═O/MMI; ICAM-1 n.t. 1-14 (TAGCAGAGGAGCTC; linkages [MMI]o[MMI]o[MMI]o[MMI]o[MMI]o[MMI]o[MMI] (s phosphorothioate, o phosphodiester), sugars by position and methylation of C not given here; 3'-terminal nucleotide 2'-deoxy, non-terminal cytosines 5-methylated)”, the IC50 in the data set with ICAM-1 mRNA [2] was determined as 15000 nM.

In the case of “ISIS 14295: A*GT*AG*CA*GA*GG*AG*CT*C (SEQ ID NO: 13), alternating P═S/MMI; ICAM-1 n.t. 1-16 (AGTAGCAGAGGAGCTC; chemistry not fully specified)”, the IC50 in the data set with ICAM-1 mRNA [2] is 35000 nM.
